The source of these data is PMC12406685, “Thiazole substitution of a labile amide bond—a new option toward antiplasmodial pantothenamide-mimics” (Antimicrobial Agents and Chemotherapy, 2025).

For one experiment, the system named is intraerythrocytic P. falciparum. Put plainly: In vitro parasite proliferation assay (SYBR Safe-based fluorescence). The experiment is classed as cell-based, Plasmodium falciparum (3D7 strain). The conditions noted are these: Plasmodium falciparum; intraerythrocytic stage, RPMI-1640 containing 1 µM pantothenate, 96 h; mean ± SEM of three experiments; read-out: IC50 (µM) against Pf at 1 µM Pan. How it is done:
Culturing of intraerythrocytic stage P. falciparum parasites (3D7 strain) was carried out using a method adapted from Trager and Jensen ([97]) and Allen and Kirk ([98]). Parasites were maintained within human, male or female, erythrocytes (typically Group O+, Rh+, 4% hematocrit) in RPMI-1640 medium (Thermo Fisher Scientific, catalogue number 72400120) supplemented with 25 mM HEPES, 11 mM glucose, 200 μM hypoxanthine, 24 μg/mL gentamicin and 6 g/L Albumax II on a horizontally rotating shaking incubator (New Brunswick Innova 42/[…]) at 37°C under an atmosphere of 96% nitrogen, 3% carbon dioxide, and 1% oxygen. To evaluate the effect of each compound on the in vitro proliferation of P. falciparum parasites, a SYBR Safe-based fluorescence assay was used as previously described ([32]). All pantothenamide-mimics tested were initially dissolved to a concentration of 200 mM in DMSO. The final DMSO concentration in the assay never exceeded 0.1% (vol/vol). Assays were performed using the same medium used to culture the parasites. […] Assays were set up with synchronous ring-stage P. falciparum-infected erythrocytes in 96-well microtiter plates. Parasites were synchronized using 5% (wt/vol) sorbitol ([100]). […] P. falciparum-infected erythrocytes incubated in the presence of 0.5 μM chloroquine were used as a non-proliferation control, and those incubated in the absence of compounds and chloroquine served as a 100% parasite proliferation control. To minimize “edge effects” ([101], [102]), the outermost rows and columns of the microtiter plates were not used in the proliferation assays and were filled with 200 μL of medium. The plates were then incubated at 37°C for 96 h under a low-oxygen atmosphere. At the end of the incubation, plates were frozen at -80°C to lyse the cells. […] The fluorescence in the non-proliferation control wells was subtracted from the fluorescence readings in the other wells prior to further analysis. Parasite proliferation, calculated as a percentage of the fluorescence measured in the test wells relative to the fluorescence measured in the 100% parasite proliferation control wells, was then plotted against the logarithm of the compound concentration. […] IC50 values (determined from the sigmoidal curves) were averaged from three independent experiments.
Usually IC50 stands for the concentration that inhibits the measured activity by half. For the compound `CC(C)CCc1csc(CNC(=O)[C@H](O)C(C)(C)CO)n1` [Compound 1b], the IC50 came out at 2.9 ± 0.2 µM.

For the compound `CCCCCCc1csc(CNC(=O)[C@H](O)C(C)(C)CO)n1` [Compound 1d], the IC50 worked out at 4.3 ± 0.4 µM.

As for `CCCCCc1nc(CNC(=O)[C@H](O)C(C)(C)CO)cs1` [Compound 2a], the IC50 was 5.6 ± 0.2 µM.

Take `CCCCCCc1nc(CNC(=O)[C@H](O)C(C)(C)CO)cs1` [Compound 2b]: the IC50 was 5.2 ± 0.6 µM.

With `CC(C)(CO)[C@@H](O)C(=O)NCc1csc(Cc2ccc3ccccc3c2)n1` [Compound 2d], the IC50 was 6.5 ± 0.1 µM.

Consider `CC(C)(CO)[C@@H](O)C(=O)NCc1csc(-c2ccc(Cl)cc2)n1` [Compound 2f], for which the 50% inhibitory concentration (IC50) was 3.1 ± 0.3 µM.

For the compound `CC(C)(CO)[C@@H](O)C(=O)NCc1csc(-c2ccc(C(F)(F)F)cc2)n1` [Compound 2g], the IC50 worked out at 57 ± 2 µM.

`CC(C)(CO)[C@@H](O)C(=O)NCc1csc(-c2cccc(C(F)(F)F)c2)n1` [Compound 2h]: the 50% inhibitory concentration (IC50) worked out at 21 ± 1 µM.

For the compound `CCCCc1ncc(CNC(=O)[C@H](O)C(C)(C)CO)s1` [Compound 3a], the IC50 came to 11 ± 1 µM.

For the compound `CCCCCc1ncc(CNC(=O)[C@H](O)C(C)(C)CO)s1` [Compound 3b], the IC50 amounted to 12 ± 1 µM.

As for `CCCCCCc1ncc(CNC(=O)[C@H](O)C(C)(C)CO)s1` [Compound 3c], the IC50 was 35 ± 2 µM.

Consider `CC(C)(CO)[C@@H](O)C(=O)NCc1cnc(Cc2ccccc2)s1` [Compound 3d], for which the IC50 was 16 ± 1 µM.

As for `CC(C)(CO)[C@@H](O)C(=O)NCc1cnc(CCc2ccccc2)s1` [Compound 3e], the IC50 was found to be 44 ± 1 µM.

As to `CC(C)(CO)[C@@H](O)C(=O)NCc1cnc(-c2ccc(F)cc2)s1` [Compound 3g], the IC50 was 14 ± 2 µM.

For the compound `CC(C)(CO)[C@@H](O)C(=O)NCc1cnc(-c2ccc(Cl)cc2)s1` [Compound 3h], the IC50 worked out at 44 ± 4 µM.

With `CC(C)(CO)[C@@H](O)C(=O)NCc1cnc(-c2ccc(C(F)(F)F)cc2)s1` [Compound 3i], the IC50 is 46 ± 6 µM.

On to `CC(C)(CO)[C@@H](O)C(=O)NCc1cnc(-c2cccc(C(F)(F)F)c2)s1` [Compound 3j], for which the IC50 was 11 ± 1 µM.

Another experiment relates to human foreskin fibroblasts (HFF). The experiment is described as follows: In vitro HFF proliferation assay (Incucyte confluency). In kind it is cell-based. Particulars: 10 µM. How it is done: (§1) HFF cells were maintained in vitro in DMEM supplemented with 10% (vol/vol) newborn calf serum, 50 units/mL penicillin, 50 µg/mL streptomycin, 10 µg/mL gentamicin, 0.2 mM L-glutamine, and 0.25 µg/mL amphotericin B, as previously described ([99]). HepG2 cells were maintained in RPMI-1640 medium (Thermo Fisher Scientific, catalogue number 72400120) supplemented with 10% (vol/vol) fetal bovine serum, 50 units/mL penicillin, and 50 µg/mL streptomycin.
In vitro HFF proliferation assays were performed as previously described by Howieson et al. ([32]), with modifications. Confluent HFF cells (in a 75 cm^2 flask) were harvested by treatment with 1 × trypsin–EDTA (0.25% [wt/vol] trypsin +0.2 g/L EDTA) and diluted in 21 mL of DMEM supplemented with 10% [vol/vol] newborn calf serum ([32]). Assays were set up in 96-well microtiter plates in a similar way to that described for the antiplasmodial activity assay. Cycloheximide (10 µM) was used as a non-proliferation control, and 0.1% (vol/vol) DMSO served as a 100% proliferation control. The plates were incubated at 37°C in a CO2 incubator for 96 h, and the Incucyte Live-Cell Analysis System (Essen BioScience) was used to capture cellular changes and assess cell growth in each well over time. Each well was scanned to capture bright field images, and confluency was assessed at the end of the 96 h incubation, which was then used to evaluate the effect of each compound on the proliferation of HFF cells by comparing it to the 100% proliferation control. The bottom of the curve was constrained to 0 when fitting for HFF proliferation assays using GraphPad Prism.
On to `C[C@@H]1C[C@@H]([C@H](O)CC2CC(=O)NC(=O)C2)C(=O)[C@@H](C)C1` [Cycloheximide, reference compound], for which the “Effect on proliferation of HFF cells (positive control)” value is given as “completely inhibited the proliferation”.

In another experiment the test system is human hepatoblastoma cells (HepG2). The experiment is described as follows: In vitro HepG2 proliferation assay (Incucyte confluency). The experiment is classed as cell-based. Particulars: 10 µM. Here is the method:
as §1
In vitro HepG2 proliferation assays were performed similarly to the HFF proliferation assays with modifications. Confluent HepG2 cells were harvested by treatment with 1 × trypsin–EDTA and diluted in RPMI-1640 supplemented with 10% (vol/vol) fetal bovine serum. Assays were set up in 96-well microtiter plates with 20,000 cells per well. Puromycin (10 µM) was used as a non-proliferation control, and 0.1% (vol/vol) DMSO served as a 100% proliferation control. The plates were incubated at 37°C in a CO2 incubator for 72 h, and the Incucyte Live-Cell Analysis System (Essen BioScience) was used to capture cellular changes and assess cell growth in each well over time as described above for the HFF proliferation assays. The bottom of the curve was constrained to 0 when fitting for HepG2 proliferation assays using GraphPad Prism.
On to `COc1ccc(C[C@H](N)C(=O)N[C@H]2[C@@H](O)[C@H](n3cnc4c(N(C)C)ncnc43)O[C@@H]2CO)cc1` [puromycin, reference compound], for which the “Effect on proliferation of HepG2 cells (positive control)” value is “completely inhibited”.

The subject of a further experiment is intraerythrocytic P. falciparum.
Assay: not given
Particulars: absence of pantetheinases; read-out: IC50 in the absence of pantetheinases; cited from earlier work.
For the compound `CCCCCNC(=O)CCNC(=O)[C@H](O)C(C)(C)CO` [Compound N5-Pan], the IC50 is 2000 ± 500 nM.

The experiment is the same for the next values; noted with them: in the presence of pantetheinases; read-out: IC50 against intraerythrocytic P. falciparum; cited from earlier work.
As for `CCCCCn1cc(CNC(=O)[C@H](O)C(C)(C)CO)nn1` [compound i], the 50% inhibitory concentration (IC50) was 56 ± 5 nM.

As to `CCCCCc1nnc(CNC(=O)[C@H](O)C(C)(C)CO)s1` [compound v], the IC50 is 960 ± 50 nM.

For `CCCCCCn1cc(CNC(=O)[C@H](O)C(C)(C)CO)nn1` [ii], the IC50 was 55 ± 5 nM.

Regarding `CCCCCc1cc(CNC(=O)[C@H](O)C(C)(C)CO)no1` [iii], the concentration for half-maximal inhibition (IC50) was 72 ± 3 nM.

For the compound `CCCCCCc1cc(CNC(=O)[C@H](O)C(C)(C)CO)no1` [iv], the IC50 was 160 ± 10 nM.

The experiment is the same for the next values; noted with them: presence of pantetheinases; read-out: IC50 in the presence of pantetheinases; cited from earlier work.
Regarding `CCCCCNC(=O)CCNC(=O)[C@H](O)C(C)(C)CO` [Compound N5-Pan], the IC50 is 124000 ± 15000 nM.

The next experiment concerns PfPanK.
Assay: not given
Details: method as in PMID 29614109, PMID 11278793, PMID 24333332. Particulars: mean ± SEM; read-out: Km for pantothenate of PfPanK in parasite lysates; cited from earlier work.
Broadly, the Km is the concentration of substrate that gives half-maximal velocity. With `CC(C)(CO)[C@@H](O)C(=O)NCCC(=O)O` [D-Pantothenate], the Michaelis-Menten constant (Km) is 270 ± 95 nM.

The target of another experiment is T1, HsPanK3 (Homo sapiens, UniProt Q9H999).
T1 sequence (Q9H999 12-368): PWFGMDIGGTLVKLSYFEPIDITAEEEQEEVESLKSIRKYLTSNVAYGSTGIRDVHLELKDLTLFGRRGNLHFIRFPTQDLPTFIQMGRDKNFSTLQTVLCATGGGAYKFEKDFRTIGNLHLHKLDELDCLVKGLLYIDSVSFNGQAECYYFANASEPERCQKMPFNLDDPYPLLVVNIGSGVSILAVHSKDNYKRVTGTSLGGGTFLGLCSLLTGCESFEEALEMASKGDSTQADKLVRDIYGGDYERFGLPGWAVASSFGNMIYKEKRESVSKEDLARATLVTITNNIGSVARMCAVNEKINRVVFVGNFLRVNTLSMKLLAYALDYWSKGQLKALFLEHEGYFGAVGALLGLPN
Assay: not given
Particulars: read-out: Km for pantothenate of HsPanK3, previous reports; cited from earlier work.
Regarding `CC(C)(CO)[C@@H](O)C(=O)NCCC(=O)O` [D-Pantothenate], the Km is 17 ± 1 µM.
